Key:
[1] = system: WPMY-1; assay: CCK-8 cytotoxicity assay, WPMY-1 normal prostate epithelial cells; assay type: cell-based; settings: WPMY-1 normal human prostate epithelial cells, CCK-8, 24 h; mean ± SD of three experiments
Procedure: (§1) Cell proliferation was measured using the CCK-8 assay kit ([Kaspers et al., 1997]; [Kaspers et al., 1998]; [Ding et al., 2010]). Cells were seeded into 96-well plates (>5*10^4) with approximately 100 ul of cell suspension per well and incubated in 37°C incubator for 4 h. Various concentrations of the compounds were then added and incubated for a further 24 h in a 37°C incubator. Finally, 10 ul CCK8 was added and incubated for 0.5–4 h, absorbance at 450 nm was determined. ([Guo et al., 2021]; [He et al., 2022a]; [Hu et al., 2022]).
(§2) The in vitro cytotoxic activity results of the synthesized derivatives 3–17 against human prostate cancer lines (PC-3, LNCaP, and DU145) and the human prostate epithelial cell line (WPMY-1) were evaluated, as shown in Table 1.

[2] = target: T1, AR (Homo sapiens, UniProt P10275); assay: AR reporter gene (luciferase) assay; assay type: cell-based; settings: read-out: AR antagonistic activity % (10 μM)
T1 sequence (P10275 1-920): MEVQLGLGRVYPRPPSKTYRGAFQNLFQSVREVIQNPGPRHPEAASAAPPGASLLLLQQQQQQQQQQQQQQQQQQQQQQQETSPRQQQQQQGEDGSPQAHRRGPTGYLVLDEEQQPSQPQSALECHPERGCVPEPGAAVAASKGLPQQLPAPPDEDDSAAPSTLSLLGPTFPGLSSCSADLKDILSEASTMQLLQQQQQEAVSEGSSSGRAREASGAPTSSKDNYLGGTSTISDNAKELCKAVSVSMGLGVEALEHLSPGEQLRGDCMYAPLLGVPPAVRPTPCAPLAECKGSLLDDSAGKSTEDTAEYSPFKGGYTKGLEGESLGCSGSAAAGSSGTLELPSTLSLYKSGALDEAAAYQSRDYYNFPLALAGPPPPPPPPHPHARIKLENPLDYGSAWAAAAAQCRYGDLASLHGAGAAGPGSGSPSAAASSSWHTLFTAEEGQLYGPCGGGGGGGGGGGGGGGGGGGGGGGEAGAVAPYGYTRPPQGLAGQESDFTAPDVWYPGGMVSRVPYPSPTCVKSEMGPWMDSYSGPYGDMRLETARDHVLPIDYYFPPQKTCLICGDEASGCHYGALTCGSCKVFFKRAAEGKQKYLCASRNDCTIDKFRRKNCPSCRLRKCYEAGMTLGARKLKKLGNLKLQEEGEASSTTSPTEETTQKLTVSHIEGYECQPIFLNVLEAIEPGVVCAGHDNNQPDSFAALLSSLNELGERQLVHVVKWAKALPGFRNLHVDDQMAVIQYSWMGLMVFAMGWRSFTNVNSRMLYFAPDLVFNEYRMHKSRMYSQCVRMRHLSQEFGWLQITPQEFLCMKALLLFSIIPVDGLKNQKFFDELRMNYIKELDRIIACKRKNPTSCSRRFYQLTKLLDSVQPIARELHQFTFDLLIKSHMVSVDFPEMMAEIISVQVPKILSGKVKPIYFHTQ
Procedure: Firefly and Renilla luciferase activities, were determined using the Dual-Glo™luciferase assay kit. RLUs were determined using the GloMax®96-Microplate Luminometer.

[3] = system: DU145; assay: CCK-8 cytotoxicity assay, DU145; assay type: cell-based, human; settings: for IC50: Homo sapiens, DU-145, DU145 cells, CCK-8, 24 h, mean ± SD of three experiments
Procedure: as §1, §2

[4] = system: LNCaP; assay: CCK-8 cytotoxicity assay, LNCaP; assay type: cell-based, human; settings: for IC50: Homo sapiens, LNCaP cells, CCK-8, 24 h, mean ± SD of three experiments
Procedure: as §1, §2

[5] = system: PC-3; assay: CCK-8 cytotoxicity assay, PC-3; assay type: cell-based, human; settings: for IC50: Homo sapiens, PC-3 cells, CCK-8, 24 h, mean ± SD of three experiments
Procedure: as §1, §2

For `OCCc1ccc(CN2CCN(C(c3ccccc3)c3ccccc3)CC2)cc1` [Compound 3, 2-(4-((4-benzhydrylpiperazin-1-yl)methyl)phenyl)ethan-1-ol], the IC50 [1] was > 50 µM, the inhibition at 10 µM [2] was 40.17 ± 0.24% and the IC50 [3] was 11.1 ± 0.76 µM. The IC50 [4] was 6.14 ± 0.58 µM, the melting point was 122 to 123 °C and the IC50 [5] was 8.13 ± 0.12 µM.

For `Cc1ccc(C(c2ccccc2)N2CCN(Cc3ccc(CCO)cc3)CC2)cc1` (stereo not drawn) [Compound 4, 2-(4-((4-(phenyl(p-tolyl)methyl)piperazin-1-yl)methyl)phenyl)ethan-1-ol], the IC50 [1] was > 50 µM, the inhibition at 10 µM [2] was 32.5 ± 0.65% and the “cytotoxic activity against DU145 cells (in words)” value [3] was “strong cytotoxic activities”. For the same compound, the IC50 [3] was 6.14 ± 0.24 µM, the “cytotoxic activity against LNCaP cells (in words)” value [4] was “strong cytotoxic activities” and the IC50 [4] was 4.67 ± 1.02 µM. For the same compound, the melting point was 125 to 126 °C, the “cytotoxic activity against PC-3 cells (in words)” value [5] was “strong cytotoxic activities” and the IC50 [5] was 2.56 ± 0.32 µM.

With `Cc1ccc(C(c2ccc(C)cc2)N2CCN(Cc3ccc(CCO)cc3)CC2)cc1` [Compound 5, 2-(4-((4-(di-p-tolylmethyl)piperazin-1-yl)methyl)phenyl)ethan-1-ol] the IC50 [1] was 37.51 ± 0.37 µM, the inhibition at 10 µM [2] was 22.7 ± 0.72% and the “cytotoxic activity against DU145 cells (in words)” value [3] was “moderate activity”. For the same compound, the IC50 [3] was 9.82 ± 0.24 µM, the IC50 [4] was 3.73 ± 0.58 µM and the melting point was 128 to 129 °C. For the same compound, the “cytotoxic activity against PC-3 cells (in words)” value [5] was “moderate activity” and the IC50 [5] was 12.1 ± 0.29 µM.

In the case of `COc1ccc(C(c2ccccc2)N2CCN(Cc3ccc(CCO)cc3)CC2)cc1` (stereo not drawn) [Compound 6, 2-(4-((4-((4-methoxyphenyl)(phenyl)methyl)piperazin-1-yl)methyl)phenyl)ethan-1-ol], the IC50 [1] is reported as > 50 µM, the inhibition at 10 µM [2] is reported as 30.75 ± 0.17% and the “cytotoxic activity against DU145 cells (in words)” value [3] is reported as “strong cytotoxic activities”. The IC50 [3] was 2.17 ± 0.72 µM, the “cytotoxic activity against LNCaP cells (in words)” value [4] was “strong cytotoxic activities” and the IC50 [4] was 6.17 ± 1.02 µM. The melting point was 116 to 117 °C, the “cytotoxic activity against PC-3 cells (in words)” value [5] was “strong cytotoxic activities” and the IC50 [5] was 3.15 ± 0.48 µM.

With `OCCc1ccc(CN2CCN(C(c3ccccc3)c3ccc(F)cc3)CC2)cc1` (stereo not drawn) [Compound 7, 2-(4-((4-((4-fluorophenyl)(phenyl)methyl)piperazin-1-yl)methyl)phenyl)ethan-1-ol] the IC50 [1] was 48.26 ± 0.41 µM, the inhibition at 10 µM [2] was 38.7 ± 0.83% and the “cytotoxic activity against DU145 cells (in words)” value [3] was “strong cytotoxic activities”. For the same compound, the IC50 [3] was 2.17 ± 1.12 µM, the “cytotoxic activity against LNCaP cells (in words)” value [4] was “strong cytotoxic activities” and the IC50 [4] was 5.17 ± 0.63 µM. For the same compound, the melting point was 116 to 117 °C, the “cytotoxic activity against PC-3 cells (in words)” value [5] was “strong cytotoxic activities” and the IC50 [5] was 1.87 ± 0.22 µM.

With `OCCc1ccc(CN2CCN(C(c3ccc(F)cc3)c3ccc(F)cc3)CC2)cc1` [Compound 8, 2-(4-((4-(bis(4-fluorophenyl)methyl)piperazin-1-yl)methyl)phenyl)ethanol] the IC50 [1] was 35.53 ± 0.13 µM, the inhibition at 10 µM [2] was 25.2 ± 0.71% and the IC50 [3] was 12.3 ± 0.16 µM. The IC50 [4] was 4.92 ± 0.29 µM, the melting point was 133 to 134 °C and the IC50 [5] was 10.12 ± 0.08 µM.

With `OCCc1ccc(CN2CCN(C(c3ccccc3)c3ccc(Cl)cc3)CC2)cc1` (stereo not drawn) [Compound 9, 2-(4-((4-((4-chlorophenyl)(phenyl)methyl)piperazin-1-yl)methyl)phenyl)ethanol] the IC50 [1] was > 50 µM, the inhibition at 10 µM [2] was 28.42 ± 0.25% and the “cytotoxic activity against DU145 cells (in words)” value [3] was “strong cytotoxic activities”. The IC50 [3] was 7.63 ± 0.12 µM, the “cytotoxic activity against LNCaP cells (in words)” value [4] was “strong cytotoxic activities” and the IC50 [4] was 4.13 ± 0.06 µM. The melting point was 130 to 131 °C, the “cytotoxic activity against PC-3 cells (in words)” value [5] was “strong cytotoxic activities” and the IC50 [5] was 1.53 ± 0.16 µM.

With `OCCc1ccc(CN2CCN(C(c3ccc(Cl)cc3)c3ccc(Cl)cc3)CC2)cc1` [Compound 10, 2-(4-((4-(bis(4-chlorophenyl)methyl)piperazin-1-yl)methyl)phenyl)ethan-1-ol] the IC50 [1] was > 50 µM, the inhibition at 10 µM [2] was 20.47 ± 0.18% and the IC50 [3] was 10.8 ± 1.14 µM. It also gave an IC50 [4] of 7.14 ± 0.29 µM, a melting point of 127 to 128 °C and an IC50 [5] of 15.24 ± 0.14 µM.

In the case of `OCCc1ccc(CN2CCN(Cc3ccccc3)CC2)cc1` [Compound 11, 2-(4-((4-benzylpiperazin-1-yl)methyl)phenyl)ethan-1-ol], the IC50 [1] is reported as > 50 µM, the inhibition at 10 µM [2] is reported as 65.15 ± 0.57% and the IC50 [3] is reported as 11.3 ± 0.27 µM. The IC50 [4] was 11.2 ± 0.14 µM, the melting point was 119 to 120 °C and the IC50 [5] was 20.4 ± 0.48 µM.

With `CC(c1ccccc1)N1CCN(Cc2ccc(CCO)cc2)CC1` (stereo not drawn) [Compound 12, 2-(4-((4-(1-phenylethyl)piperazin-1-yl)methyl)phenyl)ethan-1-ol] the IC50 [1] was > 50 µM, the inhibition at 10 µM [2] was 68.62 ± 0.38% and the IC50 [3] was 16.3 ± 0.63 µM. For the same compound, the IC50 [4] was 7.76 ± 0.19 µM, the melting point was 114 to 115 °C and the IC50 [5] was 13.7 ± 1.12 µM.

In the case of `Cc1ccc(CN2CCN(Cc3ccc(CCO)cc3)CC2)cc1` [Compound 13, 2-(4-((4-(4-methylbenzyl)piperazin-1-yl)methyl)phenyl)ethan-1-ol], the IC50 [1] is reported as 47.14 ± 0.42 µM, the inhibition at 10 µM [2] is reported as 64.18 ± 0.45% and the IC50 [3] is reported as 17.2 ± 1.02 µM. The IC50 [4] was 22.1 ± 0.76 µM, the melting point was 112 to 113 °C and the IC50 [5] was 15.4 ± 0.42 µM.

For `COc1ccc(CN2CCN(Cc3ccc(CCO)cc3)CC2)cc1` [Compound 14, 2-(4-((4-(4-methoxybenzyl)piperazin-1-yl)methyl)phenyl)ethan-1-ol], the IC50 [1] was > 50 µM, the inhibition at 10 µM [2] was 58.88 ± 0.23% and the IC50 [3] was 24.1 ± 0.47 µM. It also gave an IC50 [4] of 16.2 ± 0.53 µM, a melting point of 117 to 118 °C and an IC50 [5] of 11.1 ± 0.67 µM.

For `OCCc1ccc(CN2CCN(Cc3ccc(F)cc3)CC2)cc1` [Compound 15, 2-(4-((4-(4-fluorobenzyl)piperazin-1-yl)methyl)phenyl)ethan-1-ol], the IC50 [1] was > 50 µM, the inhibition at 10 µM [2] was 64.35 ± 0.17% and the IC50 [3] was 16.2 ± 0.62 µM. For the same compound, the IC50 [4] was 18.45 ± 0.16 µM, the melting point was 114 to 115 °C and the IC50 [5] was 10.5 ± 1.14 µM.

In the case of `OCCc1ccc(CN2CCN(Cc3ccc(Cl)cc3)CC2)cc1` [Compound 16, 2-(4-((4-(4-chlorobenzyl)piperazin-1-yl)methyl)phenyl)ethan-1-ol], the IC50 [1] is reported as > 50 µM, the inhibition at 10 µM [2] is reported as 60.25 ± 0.35% and the IC50 [3] is reported as 31.5 ± 1.21 µM. It also gave an IC50 [4] of 16.4 ± 0.19 µM, a melting point of 109 to 110 °C and an IC50 [5] of 14.4 ± 0.35 µM.

With `OCCc1ccc(CN2CCN(C3c4ccccc4Sc4ccccc43)CC2)cc1` [Compound 17, 2-(4-((4-(9H-thioxanthen-9-yl)piperazin-1-yl)methyl)phenyl)ethan-1-ol] the IC50 [1] was > 50 µM, the inhibition at 10 µM [2] was 36.5 ± 0.79% and the IC50 [3] was 8.35 ± 0.28 µM. For the same compound, the IC50 [4] was 5.61 ± 0.86 µM, the melting point was 121 to 122 °C and the IC50 [5] was 6.42 ± 0.52 µM.

Work on `CC(C)(C)NC(=O)[C@H]1CC[C@H]2[C@@H]3CC[C@H]4NC(=O)C=C[C@]4(C)[C@H]3CC[C@]12C` [Finasteride, reference compound] yielded an IC50 [3] of 14.6 µM, an IC50 [4] of 13.5 µM and an IC50 [5] of 17.8 µM.

In the case of `COc1ccccc1N1CCN(CC(O)COc2cccc3ccccc23)CC1` (stereo not drawn) [Naftopidil, reference compound], the IC50 [1] is reported as > 50 µM, the IC50 [3] is reported as 34.58 ± 0.31 µM and the IC50 [4] is reported as 22.4 ± 0.61 µM. It also gave an IC50 [5] of 42.1 ± 0.79 µM.

— publication PMC9671208, “Synthesis, biological evaluation, and molecular docking of novel hydroxyzine derivatives as potential AR antagonists” (Frontiers in Chemistry, 2022)
